{
  "source": "patent US9776992B2",
  "about": "“1-oxo-1,2-dihydroisoquinolin-7-yl-(5-substituted-thiophen-2-yl)-sulfonamide compounds, formulations containing those compounds, and their use as AICARFT inhibitors in the treatment of cancers” (Eli Lilly and Company, priority 2014, dated 2017)",
  "key": {"[1]": {"tested_on": "human lung carcinoma NCI-H460 mouse xenograft", "assay": "Antitumor efficacy in NCI-H460 mouse xenograft tumor model", "assay_type": "in vivo", "conditions": "for % T/C: NCI-H460 xenograft, no folic acid, Day 20, Delta T/C, * = P<0.05", "method": "In vivo studies are performed using female athymic nude mice (Harlan) with a bodyweight of 23-28 g at first measurement. Upon receipt and throughout the study, the animals are housed 5 animals per cage in appropriately sized solid-bottom cages with contact bedding. The animal room is maintained on a 12-hour light/dark cycle. Animals are acclimated for 14 days prior to implantation of the NCI-H460 or HCT-116 cells on low folate diet (Teklad 130451) ad libitum and autoclaved tap water is provided ad libitum. The HCT-116 and NCI-H460 cell line are obtained from American Type Culture Collection (ATCC) and is cultured following ATCC instructions. Cells used for implantation are harvested during log phase growth and suspended in serum-free media. The suspended cells are then diluted 1:1 with BD Matrigel Matrix (ref 354234). Cells are injected in the right flank with 5.0E+06 cells (0.2 mL cell/Matrigel suspension). Tumors are monitored beginning day 8 post implant. Animals are redistributed into groups with 5-6 animals per group utilizing proprietary randomization software when average tumor volume reaches 200 mm^3. Groups 1-12 are maintained on a low folate diet (Teklad 130451) and folic acid (Sigma F8798 Lot #SLBH0909V) administration at doses listed in the Table 19 began 28 hours prior to dose initiation and 4 hours prior to each dose. […] Tumor volume and body weight are measured 2× a week. Tumor volume is determined by caliper measurements (mm) and using the formula for an ellipsoid sphere: tumor volume (mm^3)=length×width^2/2, where length and width refer to the larger and smaller perpendicular dimensions collected at each measurement. The animal behavior and animal health are monitored daily during dosing period.\nThe statistical analysis of the tumor volume data begins with a data transformation to a log scale to equalize variance across time and treatment groups. The log volume data are analyzed with a two-way repeated measures analysis of variance by time and treatment using the MIXED procedures in SAS software (Version 9.3). […]"}, "[2]": {"tested_on": "human colorectal adenocarcinoma cell line HCT-116 mouse xenograft", "assay": "Antitumor efficacy in HCT-116 mouse xenograft tumor model", "assay_type": "in vivo", "conditions": "for % T/C: HCT-116 xenograft, Day 23, Delta T/C, * = P<0.05", "method": "(§1) In vivo studies are performed using female athymic nude mice (Harlan) with a bodyweight of 23-28 g at first measurement. Upon receipt and throughout the study, the animals are housed 5 animals per cage in appropriately sized solid-bottom cages with contact bedding. The animal room is maintained on a 12-hour light/dark cycle. Animals are acclimated for 14 days prior to implantation of the NCI-H460 or HCT-116 cells on low folate diet (Teklad 130451) ad libitum and autoclaved tap water is provided ad libitum. The HCT-116 and NCI-H460 cell line are obtained from American Type Culture Collection (ATCC) and is cultured following ATCC instructions. Cells used for implantation are harvested during log phase growth and suspended in serum-free media. The suspended cells are then diluted 1:1 with BD Matrigel Matrix (ref 354234). Cells are injected in the right flank with 5.0E+06 cells (0.2 mL cell/Matrigel suspension). Tumors are monitored beginning day 8 post implant. Animals are redistributed into groups with 5-6 animals per group utilizing proprietary randomization software when average tumor volume reaches 200 mm^3. Groups 1-12 are maintained on a low folate diet (Teklad 130451) and folic acid (Sigma F8798 Lot #SLBH0909V) administration at doses listed in the Table 19 began 28 hours prior to dose initiation and 4 hours prior to each dose. Folic acid is formulated weekly in PBS and dosed via oral gavage at 0.2 mL. Groups 13-16 are placed on standard chow (Teklad 2920X) at randomization. The compound is formulated weekly in 20% HPBCD in Phosphate buffer pH 8 with one molar equivalent NaOH added. The formulated compound is administered at the doses and schedules indicated in Table 19 by oral gavage (0.2 mL). The vehicle is also given QD as the control arm of the study. Tumor volume and body weight are measured 2× a week. Tumor volume is determined by caliper measurements (mm) and using the formula for an ellipsoid sphere: tumor volume (mm^3)=length×width^2/2, where length and width refer to the larger and smaller perpendicular dimensions collected at each measurement. The animal behavior and animal health are monitored daily during dosing period.\nThe statistical analysis of the tumor volume data begins with a data transformation to a log scale to equalize variance across time and treatment groups. The log volume data are analyzed with a two-way repeated measures analysis of variance by time and treatment using the MIXED procedures in SAS software (Version 9.3). The correlation model for the repeated measures is Spatial Power. Treated groups are compared to the control group at each time point. The MIXED procedure is also used separately for each treatment group to calculate adjusted means and standard errors at each time point. Both analyses account for the autocorrelation within each animal and the loss of data that occurs when animals with large tumors are removed from the study early. The adjusted means and standard errors are plotted for each treatment group vs time. The analysis comparing the treated groups to the control groups at each time point uses the log 10 tumor volumes and produces the p-values. For statistical significance of p-values shown, “*”=P<0.05.\nDelta T/C, % calculation is used. Equations: T=Final tumor volume in treated group; T0=Baseline tumor volume in treated group (assumed to be same as C0); C=Final tumor volume in control group; C0=Baseline tumor volume in control group (assumed to be same as T0); Delta T/C, %=100*(T−T0)/(C−C0)"}, "AICARFT": {"tested_on": "AICARFT", "assay": "AICARFT in vivo target inhibition (IVTI) assay in mouse plasma (AICAr)", "method": "as §1\nThe in vivo effects of AICARFT inhibition on the circulating concentration of AICAr is determined by liquid chromatography-mass spectrometry (LC-MS). Standard curves containing AICAr at concentrations of 1 ng/mL-2000 ng/mL are prepared in 40 mM ammonium acetate, pH 4. Plasma samples (75 μL) or standards (75 μL) are combined with 300 μL of an internal standard solution containing 13C5-AICAr (20 ng/mL) and formic acid (1%) in ACN. The samples are vortex mixed for 5 minutes and passed through a Phenomenex Phree 96-well phospholipid removal SPE plate. The eluents are collected in a 96-well plate and dried under heated nitrogen at 50° C. Each sample is reconstituted in 50 μL of 40 mM ammonium acetate, pH 4. The plates are sealed and vortexed for 5 minutes prior to analysis. The LC-MS method utilized a Shimadzu Prominence 20A HPLC system connected to an AB Sciex 5500™ or an AB Sciex 6500™ triple quadrupole mass spectrometer running Analyst® software. Extracted samples are separated using two Thermo Hypercarb™ Javelin guard columns (2.1×20 mm, 5 μm) connected in series with an injection volume of 15 μL and a flow rate of 1 mL/minute. Mobile phase A is a 95:5 mixture of 50 mM ammonium formate, pH 4 and ACN. Mobile phase B is a 70:30 mixture of ACN and MeOH spiked with 0.3% formic acid and 2% concentrated ammonium hydroxide solution (v/v). For mouse plasma samples the following gradient is used: 0 minutes, 0% B; 0.25 minutes, 0% B; 2.00 minutes, 25% B; 2.01 minutes, 95% B; 3.50 minutes, 95% B; 3.51 minutes, 0% B; 4.50 minutes, stop. For dog plasma samples the following gradient is used to remove endogenous interferences: 0 minutes, 0% B; 0.25 minutes, 0% B; 5.99 minutes, 20% B; 6.00 minutes, 95% B; 8.00 minutes, 95% B; 8.01 minutes, 0% B; 10.00 minutes, stop. […]"}},
  "data": [
    {"molecule": "O=c1[nH]ccc2cc(F)c(NS(=O)(=O)c3ccc(N4CC[C@@H](O)C4)s3)cc12", "note": "[Example 1, N-(6-Fluoro-1-oxo-1,2-dihydroisoquinolin-7-yl)-5-[(3R)-3-hydroxypyrrolidin-1-yl]thiophene-2-sulfonamide]", "values": [
      {"measurement": "in vivo anticancer activity (in words)", "setting": "[1]; NCI-H460 xenograft tumors, QD continuously for 2 weeks", "result": "demonstrates in vivo anticancer activity"},
      {"measurement": "% T/C", "setting": "[1]; Group 14, standard chow, 10 mg/kg QD × 13, orally", "result": 113, "unit": "%"},
      {"measurement": "% T/C", "setting": "[1]; Group 15, standard chow, 30 mg/kg QD × 13, orally", "result": "42* %"},
      {"measurement": "in vivo anticancer activity (in words)", "setting": "[2]; HCT-116 xenograft tumors, QD continuously for 2 weeks", "result": "demonstrates in vivo anticancer activity"},
      {"measurement": "% T/C", "setting": "[2]; Group 6, low folate diet, folic acid 0.75 mg/kg (QD × 15, orally), 10 mg/kg QD × 14, orally", "result": "65* %"},
      {"measurement": "% T/C", "setting": "[2]; Group 7, low folate diet, folic acid 0.75 mg/kg (QD × 15, orally), 30 mg/kg QD × 14, orally", "result": "57* %"},
      {"measurement": "% T/C", "setting": "[2]; Group 14, standard chow, no folic acid, 10 mg/kg QD × 14, orally", "result": 112, "unit": "%"},
      {"measurement": "% T/C", "setting": "[2]; Group 15, standard chow, no folic acid, 30 mg/kg QD × 14, orally", "result": 49, "unit": "%"},
      {"measurement": "Mean Plasma AICAr", "setting": "AICARFT; HCT-116 xenograft mice, Group 6, low folate diet, folic acid 0.75 mg/kg (QD × 15, orally), 10 mg/kg QD × 14, orally, Day 23", "result": 88, "unit": "nM"},
      {"measurement": "Mean Plasma AICAr", "setting": "AICARFT; HCT-116 xenograft mice, Group 7, low folate diet, folic acid 0.75 mg/kg (QD × 15, orally), 30 mg/kg QD × 14, orally, Day 23", "result": 181, "unit": "nM"},
      {"measurement": "Mean Plasma AICAr", "setting": "AICARFT; HCT-116 xenograft mice, Group 14, standard chow, no folic acid, 10 mg/kg QD × 14, orally, Day 23", "result": 44, "unit": "nM"},
      {"measurement": "Mean Plasma AICAr", "setting": "AICARFT; HCT-116 xenograft mice, Group 15, standard chow, no folic acid, 30 mg/kg QD × 14, orally, Day 23", "result": 154, "unit": "nM"},
      {"measurement": "Mean Plasma AICAr", "setting": "AICARFT; NCI-H460 xenograft mice, Group 14, standard chow, no folic acid, 10 mg/kg QD × 13, orally, Day 20", "result": 368, "unit": "nM"},
      {"measurement": "Mean Plasma AICAr", "setting": "AICARFT; NCI-H460 xenograft mice, Group 15, standard chow, no folic acid, 30 mg/kg QD × 13, orally, Day 20", "result": 1400, "unit": "nM"}
    ]}
  ]
}
